# From patent publication US20020150915A1, “Promoter sequences” (priority 2000, published 2002)
# Target: T1, CAR (Homo sapiens, UniProt Q14994)
# T1 construct: amplifying full-length CAR by RT-PCR from total RNA prepared from C3A/HepG2 cells; expressed in transfected cells; host or cells: C3A cells (HepG2 derivative), transient transfection with pcDNA3-hCAR
# T1 sequence (Q14994 1-348 isoform Q14994-2): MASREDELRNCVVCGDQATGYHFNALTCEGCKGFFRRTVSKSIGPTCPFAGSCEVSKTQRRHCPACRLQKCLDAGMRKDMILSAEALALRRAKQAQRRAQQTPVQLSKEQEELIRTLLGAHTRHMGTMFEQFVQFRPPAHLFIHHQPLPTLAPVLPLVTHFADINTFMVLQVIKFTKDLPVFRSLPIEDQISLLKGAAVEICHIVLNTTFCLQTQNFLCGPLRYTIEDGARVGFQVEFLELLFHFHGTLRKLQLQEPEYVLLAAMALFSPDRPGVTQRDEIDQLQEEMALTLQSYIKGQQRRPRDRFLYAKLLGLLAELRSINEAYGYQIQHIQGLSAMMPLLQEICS
# Assay: Cell based CYP3A7 promoter-luciferase reporter assay with CAR expression vector
# Conditions: C3A cells transfected with CYP3A7-9302 reporter and CAR expression vector; 10 μM compound, 48 hours; FIG. 3
# Protocol: C3A cells were transfected with Cyp3A7 promoter with (Cyp3A7-9302) or without (CYP3A7-7478) the XREM and with CAR expression vector (CAR) or with empty (pcDNA3) expression vector. Cells were treated with vehicle (DMSO) or 10 μM of rifampicin or clotrimasol. Relative luciferase values represent luciferase activity compensated for the alkaline phosphatase reporter. The data are mean values +/−SD for six wells of a typical experiment
# Six well plates were seeded with 0.5×10^6 C3A cells. The cells were maintained in MEM with phenol red containing L-glutamine and supplemented with nonessential amino acids. The medium also contained 10% foetal bovine serum (life Technologies). The cells were allowed to settle for 24 hours before the medium was replaced by medium containing 10% charcoal treated foetal bovine serum (Hyclone Laboratories). Each well was transfected with 0.1 μg RSV-AF, 2 μg of the indicated reporter and 0.5 μg of the expression vector for PAR-2, CAR or the empty expression vector, pcDNA3. FuGENE 6™ Transfection Reagent (Roche) was used according to recommendations from the manufacturer. After 24 hours the medium was replaced by fresh medium containing 10% charcoal treated foetal bovine serum. […] After induction for 48 hours the medium was analysed for the alkaline phosphatase activity and the luciferase activity was measured in the cell lysate as described (Bertilsson et al., 1998). […]
smiles,measurement,value
Clc1ccccc1C(c1ccccc1)(c1ccccc1)n1ccnc1 [clotrimazole],CAR dependent induction of CYP3A7 reporter,reduced
